From US11098055B2, “Ester ACC inhibitors and uses thereof” (Gilead Apollo, LLC, priority 2015, dated 2021) come the findings set out here.

Assay [1] addresses hACC2 (Homo sapiens, UniProt O00763). Put plainly: In vitro ACC2 inhibition assay (ADP-Glo), human ACC2. The class given is biochemical. Conditions: Table 2b (additional results). Summed up:
(§1)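 ADP-Glo luminescent ADP detection with 5 nM ACC2, 20 μM ATP, 20 μM acetyl-CoA, 12 mM NaHCO3, 2 mM DTT, 5% DMSO; compound (30 μM-0.00051 μM, 11 points) preincubated 15 min, reaction 60 min at room temperature. Percent inhibition against DMSO and positive controls; IC50 by four-parameter nonlinear fit.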
Background: ADP-Glo first removes unused ATP, then detects ADP through luciferase.

Assay [2] deals with fACC2 (UniProt Q00955). Nature of the assay: In vitro ACC2 inhibition assay (ADP-Glo), fungal ACC2. The assay is classed as biochemical. Conditions: Table 2b (additional results). Summed up:
as §1

The subject of assay [3] is C. albicans ATCC 90028. Nature of the assay: Anti-Fungal (Candida) Activity Assay, broth microtiter MIC. The assay is classed as cell-based. Conditions: ATCC90028, 48 h, Table 3b (additional results), 3 replicates, MIC read at 48 h. Summed up: (§2)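 Broth microdilution per CLSI M27-A3 in RPMI 1640 + MOPS, at a final inoculum of 2.5×10^3 CFU/mL. Compound DMSO stocks were diluted in water to a 128 μg/mL working solution. MIC was read visually against the growth control at 48 h.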

The test system of assay [4] is C. parapsilosis ATCC 22019. The description is as above. The assay is classed as cell-based. Conditions: Lodderomyces parapsilosis, ATCC22019, 48 h, Table 3b (additional results); 3 replicates; MIC read at 48 h. Summed up: as §2

Values after ≈ are worked out from the molar mass of the structure shown.

hACC2, sequence (O00763 whole entry): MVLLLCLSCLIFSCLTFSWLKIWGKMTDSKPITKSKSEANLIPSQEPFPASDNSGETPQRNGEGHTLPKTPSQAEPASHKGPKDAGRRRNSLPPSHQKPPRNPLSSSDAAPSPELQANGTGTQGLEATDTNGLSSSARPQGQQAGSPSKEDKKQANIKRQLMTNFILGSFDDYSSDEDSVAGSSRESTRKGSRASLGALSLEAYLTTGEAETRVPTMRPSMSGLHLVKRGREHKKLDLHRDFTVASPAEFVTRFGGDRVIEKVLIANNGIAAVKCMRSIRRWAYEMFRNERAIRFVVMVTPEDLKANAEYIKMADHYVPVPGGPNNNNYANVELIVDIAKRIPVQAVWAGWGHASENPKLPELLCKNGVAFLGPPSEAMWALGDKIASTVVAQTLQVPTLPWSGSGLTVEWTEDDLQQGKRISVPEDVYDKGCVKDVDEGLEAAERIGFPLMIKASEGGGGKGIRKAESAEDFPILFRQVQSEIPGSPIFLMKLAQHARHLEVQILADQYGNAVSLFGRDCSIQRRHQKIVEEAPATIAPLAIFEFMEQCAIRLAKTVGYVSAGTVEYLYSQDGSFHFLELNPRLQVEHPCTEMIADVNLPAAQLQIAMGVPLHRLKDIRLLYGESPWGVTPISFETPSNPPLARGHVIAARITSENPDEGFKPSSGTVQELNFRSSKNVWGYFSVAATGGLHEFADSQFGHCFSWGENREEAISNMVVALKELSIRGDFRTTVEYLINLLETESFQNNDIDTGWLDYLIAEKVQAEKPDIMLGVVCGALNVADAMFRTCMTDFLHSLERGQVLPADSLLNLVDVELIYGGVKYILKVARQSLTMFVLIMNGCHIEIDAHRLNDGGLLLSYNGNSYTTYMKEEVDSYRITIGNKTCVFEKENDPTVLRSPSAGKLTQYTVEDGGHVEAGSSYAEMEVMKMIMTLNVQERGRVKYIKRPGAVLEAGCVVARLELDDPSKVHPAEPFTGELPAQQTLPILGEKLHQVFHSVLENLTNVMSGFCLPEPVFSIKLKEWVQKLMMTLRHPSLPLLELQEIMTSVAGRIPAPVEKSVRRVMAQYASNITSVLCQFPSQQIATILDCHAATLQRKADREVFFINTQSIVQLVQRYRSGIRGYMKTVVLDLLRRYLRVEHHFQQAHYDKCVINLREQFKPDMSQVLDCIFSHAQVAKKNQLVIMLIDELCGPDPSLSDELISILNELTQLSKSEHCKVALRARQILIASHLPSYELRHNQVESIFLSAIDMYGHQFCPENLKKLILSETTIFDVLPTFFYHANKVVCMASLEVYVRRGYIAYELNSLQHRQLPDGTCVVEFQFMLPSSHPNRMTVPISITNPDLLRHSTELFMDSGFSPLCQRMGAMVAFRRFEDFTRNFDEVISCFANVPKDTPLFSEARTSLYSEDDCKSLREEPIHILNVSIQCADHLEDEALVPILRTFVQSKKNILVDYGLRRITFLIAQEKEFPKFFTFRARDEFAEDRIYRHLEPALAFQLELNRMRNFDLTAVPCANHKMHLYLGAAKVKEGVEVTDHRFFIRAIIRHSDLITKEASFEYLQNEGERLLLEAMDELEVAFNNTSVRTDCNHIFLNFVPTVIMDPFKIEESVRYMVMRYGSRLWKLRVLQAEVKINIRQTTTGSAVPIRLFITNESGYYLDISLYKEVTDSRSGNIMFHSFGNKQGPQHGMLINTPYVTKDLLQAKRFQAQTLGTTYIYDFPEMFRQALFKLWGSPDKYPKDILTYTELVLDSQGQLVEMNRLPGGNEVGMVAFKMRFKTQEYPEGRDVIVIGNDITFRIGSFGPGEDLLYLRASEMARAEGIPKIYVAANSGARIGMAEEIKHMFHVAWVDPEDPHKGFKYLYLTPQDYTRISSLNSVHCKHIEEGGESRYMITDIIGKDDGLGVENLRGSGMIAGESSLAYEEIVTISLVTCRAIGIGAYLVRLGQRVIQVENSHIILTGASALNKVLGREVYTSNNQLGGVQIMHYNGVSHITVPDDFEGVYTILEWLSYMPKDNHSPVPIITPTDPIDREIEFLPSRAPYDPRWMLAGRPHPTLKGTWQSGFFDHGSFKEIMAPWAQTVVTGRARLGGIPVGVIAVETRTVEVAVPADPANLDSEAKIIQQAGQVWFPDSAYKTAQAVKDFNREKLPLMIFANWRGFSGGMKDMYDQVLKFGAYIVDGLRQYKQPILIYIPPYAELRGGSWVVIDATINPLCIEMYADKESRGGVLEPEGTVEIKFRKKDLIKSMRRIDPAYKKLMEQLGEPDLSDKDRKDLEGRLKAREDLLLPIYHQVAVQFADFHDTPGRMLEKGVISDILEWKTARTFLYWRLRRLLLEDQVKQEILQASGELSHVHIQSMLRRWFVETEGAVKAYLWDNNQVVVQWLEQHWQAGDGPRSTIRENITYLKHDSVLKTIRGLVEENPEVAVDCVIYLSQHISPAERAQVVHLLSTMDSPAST
fACC2, sequence (Q00955 whole entry): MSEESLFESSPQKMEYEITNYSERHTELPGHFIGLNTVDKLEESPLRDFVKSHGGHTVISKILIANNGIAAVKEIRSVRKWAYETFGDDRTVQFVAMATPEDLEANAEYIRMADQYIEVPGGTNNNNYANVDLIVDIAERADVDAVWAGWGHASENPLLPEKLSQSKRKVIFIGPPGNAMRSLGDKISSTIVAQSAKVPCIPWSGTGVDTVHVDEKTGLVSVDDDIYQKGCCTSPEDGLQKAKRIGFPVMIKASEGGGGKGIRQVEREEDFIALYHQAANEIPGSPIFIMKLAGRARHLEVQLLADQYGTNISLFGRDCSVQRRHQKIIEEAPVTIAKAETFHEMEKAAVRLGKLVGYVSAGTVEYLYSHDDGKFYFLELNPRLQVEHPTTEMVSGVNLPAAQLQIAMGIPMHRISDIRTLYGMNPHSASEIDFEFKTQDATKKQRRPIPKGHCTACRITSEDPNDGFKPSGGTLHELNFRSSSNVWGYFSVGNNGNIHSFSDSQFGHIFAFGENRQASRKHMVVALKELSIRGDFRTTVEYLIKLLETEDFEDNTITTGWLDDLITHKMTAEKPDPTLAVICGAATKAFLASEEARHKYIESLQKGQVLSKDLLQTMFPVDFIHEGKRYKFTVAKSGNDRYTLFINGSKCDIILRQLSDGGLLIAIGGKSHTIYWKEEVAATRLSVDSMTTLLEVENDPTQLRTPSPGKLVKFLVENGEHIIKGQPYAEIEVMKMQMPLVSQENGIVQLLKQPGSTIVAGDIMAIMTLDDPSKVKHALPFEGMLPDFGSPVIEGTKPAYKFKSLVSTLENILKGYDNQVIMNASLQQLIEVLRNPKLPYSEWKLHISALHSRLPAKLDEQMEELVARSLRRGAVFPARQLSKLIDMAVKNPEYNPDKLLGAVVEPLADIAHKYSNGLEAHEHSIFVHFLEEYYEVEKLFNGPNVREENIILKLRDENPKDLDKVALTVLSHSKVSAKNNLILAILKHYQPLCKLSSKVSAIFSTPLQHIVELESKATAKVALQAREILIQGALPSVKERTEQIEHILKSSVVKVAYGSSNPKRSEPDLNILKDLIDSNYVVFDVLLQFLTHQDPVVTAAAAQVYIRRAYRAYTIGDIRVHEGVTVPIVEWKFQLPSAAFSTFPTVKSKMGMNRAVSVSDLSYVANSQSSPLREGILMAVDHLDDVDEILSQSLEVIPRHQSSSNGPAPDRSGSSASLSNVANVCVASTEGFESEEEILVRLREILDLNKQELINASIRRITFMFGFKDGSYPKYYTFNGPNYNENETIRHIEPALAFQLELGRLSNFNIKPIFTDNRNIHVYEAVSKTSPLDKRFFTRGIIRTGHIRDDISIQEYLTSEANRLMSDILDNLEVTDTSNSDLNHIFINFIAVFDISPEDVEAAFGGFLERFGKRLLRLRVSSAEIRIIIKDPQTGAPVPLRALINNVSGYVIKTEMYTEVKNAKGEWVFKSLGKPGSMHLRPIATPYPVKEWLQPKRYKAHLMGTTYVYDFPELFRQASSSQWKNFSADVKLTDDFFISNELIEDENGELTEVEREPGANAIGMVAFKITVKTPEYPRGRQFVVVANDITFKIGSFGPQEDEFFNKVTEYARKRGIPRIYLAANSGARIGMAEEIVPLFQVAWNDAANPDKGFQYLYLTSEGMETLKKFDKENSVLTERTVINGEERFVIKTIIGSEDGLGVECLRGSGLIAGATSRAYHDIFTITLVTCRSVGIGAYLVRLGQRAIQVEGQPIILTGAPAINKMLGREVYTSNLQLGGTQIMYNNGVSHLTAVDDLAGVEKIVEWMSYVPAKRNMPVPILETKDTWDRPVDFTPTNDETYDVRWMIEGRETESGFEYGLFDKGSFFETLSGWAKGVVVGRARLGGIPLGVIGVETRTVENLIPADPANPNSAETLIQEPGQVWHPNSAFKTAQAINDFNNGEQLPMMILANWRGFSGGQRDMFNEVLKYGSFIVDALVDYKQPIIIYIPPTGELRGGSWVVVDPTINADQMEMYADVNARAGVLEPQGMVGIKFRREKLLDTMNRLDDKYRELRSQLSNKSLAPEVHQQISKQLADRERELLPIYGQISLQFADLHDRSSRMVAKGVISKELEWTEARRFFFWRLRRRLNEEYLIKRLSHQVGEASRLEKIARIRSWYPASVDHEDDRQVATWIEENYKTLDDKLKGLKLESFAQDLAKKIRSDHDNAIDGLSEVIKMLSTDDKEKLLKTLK

A word on the IC50: it is the concentration that inhibits the measured activity by half. For orientation: MIC means the smallest concentration in the dilution series that meets the test's criterion for growth inhibition. Low readings indicate a more susceptible organism, high ones a less susceptible organism. On to `CCOC(=O)c1sc2c(c1C)c(=O)n(C(C)(C)C(=O)NC(C)C)c(=O)n2C[C@H](OCC(C)(C)C#N)c1cc(F)ccc1OC` [Compound I-37, ethyl (R)-1-(2-(2-cyano-2-methylpropoxy)-2-(5-fluoro-2-methoxyphenyl)ethyl)-3-(1-(isopropylamino)-2-methyl-1-oxopropan-2-yl)-5-methyl-2,4-dioxo-1,2,3,4-tetrahydrothieno[2,3-d]pyrimidine-6-carboxylate], for which the IC50 was in the range of 10 to 40 nM in assay [1] and 0.3 to 3 nM in assay [2]. Also, the minimal inhibitory concentration (MIC) in assay [3] was 0.25 to 1 µg/mL (≈ 0.396 to 1.59 µM); in assay [4], 2.1 to 4 µg/mL (≈ 3.33 to 6.34 µM).

Turning to `CCOC(=O)c1sc2c(c1C)c(=O)n(C(C)(C)C(=O)NC(C)C)c(=O)n2C[C@H](OCC(C)(C)C#N)c1ccccc1OC` [Compound I-38, ethyl (R)-1-(2-(2-cyano-2-methylpropoxy)-2-(2-methoxyphenyl)ethyl)-3-(1-(isopropylamino)-2-methyl-1-oxopropan-2-yl)-5-methyl-2,4-dioxo-1,2,3,4-tetrahydrothieno[2,3-d]pyrimidine-6-carboxylate], the IC50 was 10 to 40 nM in assay [1] and 0.3 to 3 nM in assay [2]. The MIC in assay [3] lay in the range of 0.25 to 1 µg/mL (≈ 0.408 to 1.63 µM); in assay [4] it was 2.1 to 4 µg/mL (≈ 3.43 to 6.53 µM).

With `CCNC(=O)C(C)(C)n1c(=O)c2c(C)c(C(=O)OCC)sc2n(C[C@H](O)c2cc(F)ccc2OC)c1=O` [Compound I-39, ethyl (R)-3-(1-(ethylamino)-2-methyl-1-oxopropan-2-yl)-1-(2-(5-fluoro-2-methoxyphenyl)-2-hydroxyethyl)-5-methyl-2,4-dioxo-1,2,3,4-tetrahydrothieno[2,3-d]pyrimidine-6-carboxylate], the results for the IC50 in assay [1] and in assay [2] were 10 to 40 nM and 0.3 to 3 nM, respectively. Further, the MIC in assay [3] and in assay [4] was 2.1 to 4 µg/mL (≈ 3.92 to 7.47 µM) each time.

Consider `CCOC(=O)c1sc2c(c1C)c(=O)n(C(C)(C)C(=O)NC(C)C)c(=O)n2CCc1cc(F)ccc1OC` [Compound I-40, ethyl 1-(5-fluoro-2-methoxyphenethyl)-3-(1-(isopropylamino)-2-methyl-1-oxopropan-2-yl)-5-methyl-2,4-dioxo-1,2,3,4-tetrahydrothieno[2,3-d]pyrimidine-6-carboxylate], for which the IC50 in assay [1] is 10 to 40 nM; in assay [2] it was 3 to 10 nM. For the same compound, the values for the MIC in assay [3] and in assay [4] were 2.1 to 4 µg/mL (≈ 3.94 to 7.5 µM) and 0.25 to 1 µg/mL (≈ 0.468 to 1.87 µM), respectively.

Consider `CCNC(=O)[C@@H](C)n1c(=O)c2c(C)c(C(=O)OCC)sc2n(C[C@H](OCCC#N)c2cc(F)ccc2OC)c1=O` [Compound I-41, ethyl 1-((R)-2-(2-cyanoethoxy)-2-(5-fluoro-2-methoxy-phenyl)ethyl)-3-((R)-1-(ethylamino)-1-oxopropan-2-yl)-5-methyl-2,4-dioxo-1,2,3,4-tetrahydrothieno[2,3-d]pyrimidine-6-carboxylate], for which the half-maximal inhibitory concentration (IC50) in assay [1] was 10 to 40 nM; in assay [2], 0.3 to 3 nM. Besides, the MIC in assay [3] and in assay [4] was 2.1 to 4 µg/mL (≈ 3.65 to 6.96 µM) throughout.

For the compound `CCNC(=O)[C@H](C)n1c(=O)c2c(C)c(C(=O)OCC)sc2n(C[C@H](OCCC#N)c2cc(F)ccc2OC)c1=O` [Compound I-42, ethyl 1-((R)-2-(2-cyanoethoxy)-2-(5-fluoro-2-methoxyphenyl)ethyl)-3-((S)-1-(ethylamino)-1-oxopropan-2-yl)-5-methyl-2,4-dioxo-1,2,3,4-tetrahydrothieno[2,3-d]pyrimidine-6-carboxylate], the figures for the IC50 in assay [1] and in assay [2] were 3 to 10 nM and 0.3 to 3 nM, respectively. Further, the MIC in assay [3] and in assay [4] was 2.1 to 4 µg/mL (≈ 3.65 to 6.96 µM) in each case.

For the compound `CCOC(=O)c1sc2c(c1C)c(=O)n([C@H](C)C(=O)NC(C)C)c(=O)n2C[C@H](O)c1cc(F)ccc1OC` [Compound I-43, ethyl 1-((R)-2-(5-fluoro-2-methoxyphenyl)-2-hydroxyethyl)-3-((R)-1-(isopropylamino)-1-oxopropan-2-yl)-5-methyl-2,4-dioxo-1,2,3,4-tetrahydrothieno[2,3-d]pyrimidine-6-carboxylate], the results for the IC50 in assay [1] and in assay [2] were ≥ 40 nM and 0.3 to 3 nM, respectively. For the same compound, the MIC in assay [3] and in assay [4] was 2.1 to 4 µg/mL (≈ 3.92 to 7.47 µM) throughout.

In the case of `CCOC(=O)c1sc2c(c1C)c(=O)n([C@@H](C)C(=O)NC(C)C)c(=O)n2C[C@H](O)c1cc(F)ccc1OC` [Compound I-44, ethyl 1-((R)-2-(5-fluoro-2-methoxyphenyl)-2-hydroxyethyl)-3-((S)-1-(isopropylamino)-1-oxopropan-2-yl)-5-methyl-2,4-dioxo-1,2,3,4-tetrahydrothieno[2,3-d]pyrimidine-6-carboxylate], the IC50 was ≥ 40 nM in assay [1] and 10 to 40 nM in assay [2]. The MIC in assay [3] and in assay [4] was 2.1 to 4 µg/mL (≈ 3.92 to 7.47 µM) throughout.
